Laboratory results reported in US4560549A, “Method of relieving pain and inflammatory conditions employing substituted salicylamides” (Lever Brothers Company, priority 1983, dated 1985).

Legend:
[1] = tested on: inflammation of mice ears caused by calcium ionophore (A-23187); assay: Anti-inflammatory activity on inflammation of mice ears caused by calcium ionophore A-23187 (Examples 4-7); type: in vivo, male outbred hairless mice; conditions: for reduction of inflammation (in words): topical, 30 minutes after application of ionophore A-23187; for Reduction in Edema (%) / Reduction in Erythema (%): Table I, 1.5 micromole topically to ear 30 min after 4.0 nmole A-23187, assessed at 4 hrs; for anti-inflammatory activity (in words): at the concentration used (1.5 micromole), data of Table 1
Description: In a group of 5 male outbred hairless mice, inflammation is induced on their ears by the topical application thereto of 4.0 nmole in acetone solution (total volume 10 microliter) of the known divalent calcium ionophore (antibiotic A-23187), which is derived from streptomyces chartreusis and is a member of a known class of compounds having ionophoric activity. See, e.g. Pressman, B. C., "Biological Applications of Ionophores", Ann. Rev. Biochem., 45, 501, 1976. […] See Marks, F., Furstenberger, G., and Kownatzki, E., "Prostaglandin E-mediated Mitogenic Stimulation of Mouse Epidermis in vivo by divalent cation ionophore A-23187 and by tumor promoter 12-O-tetradecanoyl phorbol-13-acetate, Cancer Res., 41, 696, 1981.
In each animal only one ear is treated, the other untreated ear serving as a control.
In Examples 4, 5 and 6 the compounds AN-10, APCF3-8 and AMCF3-8, respectively, are topically applied to the treated ears of different groups of five male outbred hairless mice 30 minutes following the topical application thereto of the ionophore A-23187. Specifically, 1.5 micromole of the amido compound in acetone solution (total volume 10 microliters) is applied topically to treated male outbred hairless mice ears 30 min. after topical application thereto of a calcium ionophore (A-23187, 4.0 nmole total volume to 10 microliter) in acetone. As already noted, in each case, each animal serves as its own control in that only one ear is subjected to said test regime while the other ear is left untouched. Erythema and edema are assessed 4 hrs. after application of the ionophore. In Control Example 7, 3,4',5-tribromosalicylanilide (TBS) is applied in the same manner.

[2] = tested on: untreated ears of mice; assay: Inflammatory potential of the compounds on untreated mouse ears (Study B, Day 1); type: in vivo, young, male, adult hairless outbred mice (Skh:hr-1 strain); conditions: 1.5 micromole per 10 microliter on untreated ears
Description: (§1) Acute inflammation is induced by the application of 4 nano mole of the antibiotic A-23187 to the ears of young, male, adult hairless outbred mice (Skh:hr-1 strain). Thereafter, one of the compounds AN-10, AMCF3-8, ACBXE-9, acryloyl AN-10, S-4-F and SAN-6 is applied to the affected ears and the degree of reduction in edema (inflammation) noted.
(§2) Secondly, in the expression of the data, the objective parameter of ear weights is used as the sole data source (for the reduction of edema) as erythematous responses are not recorded. Ear weights are determined by sacrificing the animals four hours after initial application of the antibiotic A-23187 or other control material by the use of CO2 gas. Thereafter, the ears are excised by cutting along the characteristic ridge readily discernible along the inner aspect of the ears. Wet and dry ear weights are used to determine the extent of the edema or inflammation present.
(§3) A second group of studies (Study B) is conducted on two consecutive days with two sets of mice (totalling […]) received from the same shipment.
The first batch of 40 animals is divided into […] of 5 each. […] The remaining two groups of 5 animals each serve as controls and their ears are dosed with A-23187 and acetone respectively.
(§4) The amount of each salicylamide compound applied is kept constant, for Days 1 and 2, at 1.5 micromole per 10 microliter of test solution. Sacrifice begins four hours after application A-23187, on both days, and the results are recorded. Table 2 summarizes the results of the regimen of testing involved with each one of the 30 animals in question on Day 2 with the remaining 10 animals serving as controls as already noted.

[3] = tested on: ears of hairless outbred mice inflamed with A-23187; assay: Reduction in edema of A-23187 inflamed mouse ears by ear weight (Examples 8-14, Studies A and B); type: in vivo, young, male, adult hairless outbred mice (Skh:hr-1 strain); conditions: for Reduction in Edema (%): sacrificed at four hours; for anti-inflammatory activity (in words): under the test conditions, data of Table 2
Description: as §1
The method used in the subject Examples differs from the method used in the preceding Examples (4 through 7) in two respects.
as §2
In Study A, 28 test animals are randomized into four treatment groups of seven each and subjected to the following ear treatment regimen:
Each animal is dosed with a treatment consisting of a 10 microliter quantity of the assigned test material solution (or pure acetone in the case of the animals of Group D) applied to the outer aspect of both ears, i.e., 10 microliter of test material per ear. The concentrations of the respective materials in acetone solution are such that a 10 microliter dose of a solution of the antibiotic A-23187 contains 4 nano mole of such antibiotic. The corresponding quantity in the case of the AN-10 in acetone solution is 1.5 micromole. The animals of Groups A and B are initially treated with the acetone solution of A-23187. In the case of the animals of Group B alone, 10 microliter of the acetone solution of AN-10 is applied to the affected ears 1/2 hour after the application of the above-mentioned quantity of a solution in acetone of the antibiotic A-23187. The animals of Group C receive a 10 microliter dose per ear of the AN-10 in acetone solution alone. The animals of Group D receive a dose of 10 microliter per ear of pure acetone. All the test subjects are sacrificed four hours after the application of A-23187 to the animals of Groups A and B or the other test materials in the case of the animals of Groups C and D. The results are summarized in Table 2 noted below.
as §3
On Day 2, using the second set of 40 mice, sub-divided into 8 groups of 5 each, the six compounds in question are applied as acetone solutions in the manner described under Study A to mice ears inflamed with A-23187 again, as described in Study A above. As with the studies conducted on Day 1, the remaining two groups of 5 animals each serve as controls and their ears are dosed with A-23187 and acetone respectively.
as §4

[4] = tested on: rats; conditions: comparable toxicity for aspirin; cited from earlier work
[5] = tested on: mice backs (skin); conditions: topical application to mice backs; cited from earlier work
[6] = tested on: Osborne-Mendel white rats; conditions: single dose oral route, female Osborne-Mendel white rats; cited from earlier work
[7] = Study B, Day 2, 1.5 micromole per 10 microliter, A-23187 inflamed ears

For COc1ccc2c(c1)c(CC(=O)O)c(C)n2C(=O)c1ccc(Cl)cc1 [indomethacin, reference compound], which “reduction of inflammation (in words)” value [1] is on record?
The value was “reduction of inflammation”.

With CCCCCCCC(=O)c1ccc(O)c(C(=O)Nc2cccc(C(F)(F)F)c2)c1 [AMCF3-8] as the compound, how does the “noticeable inflammation caused by the compound alone” value (shortened to “noticeable inflammation caused”) [2] read?
The value was “none of the six compounds being tested cause any noticeable inflammation”.

And the “Reduction in Edema (%)” value [3, 7]?
Its value is 81%.

What about the “anti-inflammatory activity (in words)” value [3] of the same compound?
Its value is “significant anti-inflammatory activity”.

And the “more edema reduction activity of the meta isomer than the para isomer” value ([1]; AMCF3-8 versus APCF3-8)?
The value was “about 30%”.

And the “more erythema reduction activity of the meta isomer than the para isomer” value ([1]; AMCF3-8 versus APCF3-8)?
The value was “about 20%”.

What about the “Reduction in Edema (%)” value [1] of the same compound?
Its value is 80%.

And the “Reduction in Erythema (%)” value [1]?
Its value is 76%.

What about the “anti-inflammatory activity (in words)” value [1] of the same compound?
The value was “effective anti-inflammatories”.

With O=C(Nc1ccc(Br)cc1)c1cc(Br)cc(Br)c1O [TBS, 3,4',5-tribromosalicylanilide, reference compound] as the compound, how does the “Reduction in Edema (%)” value [1] read?
The value was 12%.

What about the “Reduction in Erythema (%)” value [1] of the same compound?
The value was 35%.

And the “anti-inflammatory activity (in words)” value [1]?
The value was “essentially inactive”.

For CC(=O)Oc1ccccc1C(=O)O [aspirin, acetylsalicylic acid], which LD50 [4] is on record?
Its LD50 is “about 1.75 g/kg. body weight”.

With C[C@]12CCC(=O)C=C1CC[C@@H]1[C@@H]2[C@@H](O)C[C@@]2(C)[C@H]1CC[C@]2(O)C(=O)CO [hydrocortisone, reference compound] as the compound, how does the “reduction of inflammation (in words)” value [1] read?
The value was “reduction of inflammation”.

Which “Reduction in Edema (%)” value [1] does the source give for CCCCCCCC(=O)c1ccc(O)c(C(=O)Nc2ccc(C(F)(F)F)cc2)c1 [APCF3-8] here?
The value was 48%.

What about the “Reduction in Erythema (%)” value [1] of the same compound?
Its value is 57%.

And the “anti-inflammatory activity (in words)” value [1]?
The value was “effective anti-inflammatories”.

With CNc1ccc2oc(C[C@H]3O[C@@]4(CC[C@H]3C)O[C@H]([C@H](C)C(=O)c3ccc[nH]3)[C@H](C)C[C@H]4C)nc2c1C(=O)O [A-23187, reference compound] as the compound, how does the “skin irritation (in words)” value [5] read?
The value was “potent ability to cause skin irritation with white blood cell infiltration, erythema (skin reddening), edema, epidermal hypertrophy and subsequent epidermal hyperplasia”.

What about the “acute inflammation on treated mice ears (in words)” value ([1]; topical application of A-23187, time and dose dependent) of the same compound?
Its value is “Acute inflammation develops on treated mice ears within 4 hours”.

Which results are given for CCCCCCc1ccc(O)c(C(=O)Nc2ccc([N+](=O)[O-])cc2)c1 [SAN-6]?
noticeable inflammation caused by the compound alone [2]: none of the six compounds being tested cause any noticeable inflammation; Reduction in Edema (%) [3, 7]: 59%; anti-inflammatory activity (in words) [3]: significant anti-inflammatory activity

With C=CC(=O)Oc1ccc(C(=O)CCCCCCCCC)cc1C(=O)Nc1ccc([N+](=O)[O-])cc1 [acryloyl AN-10] as the compound, how does the “noticeable inflammation caused” value [2] read?
The value was “none of the six compounds being tested cause any noticeable inflammation”.

What about the “Reduction in Edema (%)” value [3, 7] of the same compound?
The value was 82%.

And the “anti-inflammatory activity (in words)” value [3]?
The value was “significant anti-inflammatory activity”.

What does the source list for CCCCCCCCCC(=O)c1ccc(O)c(C(=O)Nc2ccc([N+](=O)[O-])cc2)c1 [AN-10]?
LD50 [6]: greater than 2000 mg./kg.; noticeable inflammation caused by the compound alone [2]: none of the six compounds being tested cause any noticeable inflammation; Reduction in Edema (%) ([3]; Study A, 1.5 micromole per ear 1/2 hour after 4 nano mole A-23187): 55%; Reduction in Edema (%) [3, 7]: 81%; anti-inflammatory activity (in words) [3]: significant anti-inflammatory activity; Reduction in Edema (%) [1]: 59%; Reduction in Erythema (%) [1]: 59%; anti-inflammatory activity (in words) [1]: effective anti-inflammatories

For CCCCc1ccc(O)c(C(=O)Nc2cccc(C(F)(F)F)c2)c1 [S-4-F], which “noticeable inflammation caused” value [2] is on record?
The value was “none of the six compounds being tested cause any noticeable inflammation”.

What about the “Reduction in Edema (%)” value [3, 7] of the same compound?
Its value is 70%.

What about the “anti-inflammatory activity (in words)” value [3] of the same compound?
The value was “significant anti-inflammatory activity”.

Which results are given for CCCCCCCCC(=O)c1ccc(O)c(C(=O)Nc2cccc(C(=O)OCC)c2)c1 [ACBXE-9]?
noticeable inflammation caused by the compound alone [2]: none of the six compounds being tested cause any noticeable inflammation; Reduction in Edema (%) [3, 7]: 76%; anti-inflammatory activity (in words) [3]: significant anti-inflammatory activity
